ChEMBL document CHEMBL5335856, “Structurally Diverse Alkaloids with Anti-Renal-Fibrosis Activity from the Centipede Scolopendra subspinipes mutilans” (J Nat Prod, 2024)
Calls of active or inactive are those of the source. No cut-off for these calls is given here.

What was measured:
[1] = molecular target: Stress-induced-phosphoprotein 1 (Homo sapiens) (UniProt P31948); test: Binding affinity to Stip1 (unknown origin) assessed as fold change in protein upregulation at 200 uM preincubated for 2 hrs followed by pronase addition and measured after 30 mins by coomassie blue staining based SDS-PAGE gel analysis
[2] = molecular target: Serine/threonine-protein kinase TAO3 (Homo sapiens) (UniProt Q9H2K8); test: Binding affinity to Taok3 (unknown origin) at 200 uM preincubated for 2 hrs followed by pronase addition and measured after 30 mins by coomassie blue staining based SDS-PAGE gel analysis
Chain of Serine/threonine-protein kinase TAO3 (Homo sapiens) (Q9H2K8 whole entry): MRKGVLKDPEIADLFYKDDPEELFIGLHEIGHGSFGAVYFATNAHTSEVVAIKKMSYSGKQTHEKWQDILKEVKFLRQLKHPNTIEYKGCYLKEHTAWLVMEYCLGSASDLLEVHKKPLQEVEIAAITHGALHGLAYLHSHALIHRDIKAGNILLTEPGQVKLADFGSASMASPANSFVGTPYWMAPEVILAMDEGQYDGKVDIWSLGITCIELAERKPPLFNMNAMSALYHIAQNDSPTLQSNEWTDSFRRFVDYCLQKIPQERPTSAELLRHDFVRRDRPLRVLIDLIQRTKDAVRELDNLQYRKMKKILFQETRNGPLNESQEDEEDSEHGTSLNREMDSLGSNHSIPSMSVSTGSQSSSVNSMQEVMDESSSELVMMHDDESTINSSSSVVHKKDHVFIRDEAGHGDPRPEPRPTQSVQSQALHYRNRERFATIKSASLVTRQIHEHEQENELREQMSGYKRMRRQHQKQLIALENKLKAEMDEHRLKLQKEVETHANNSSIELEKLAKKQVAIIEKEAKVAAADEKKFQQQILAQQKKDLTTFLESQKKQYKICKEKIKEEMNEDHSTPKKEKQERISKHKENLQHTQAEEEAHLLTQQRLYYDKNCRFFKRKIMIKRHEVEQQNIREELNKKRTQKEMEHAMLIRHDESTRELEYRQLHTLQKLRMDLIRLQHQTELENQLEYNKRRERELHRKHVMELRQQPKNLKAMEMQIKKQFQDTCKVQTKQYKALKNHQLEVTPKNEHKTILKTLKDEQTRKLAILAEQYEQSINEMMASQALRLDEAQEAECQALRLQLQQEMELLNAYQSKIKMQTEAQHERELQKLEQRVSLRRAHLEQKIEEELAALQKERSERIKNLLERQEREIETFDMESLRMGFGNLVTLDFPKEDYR

[3] = molecular target: Ubiquitin-like modifier-activating enzyme 5 (Homo sapiens) (UniProt Q9GZZ9); test: Binding affinity to Uba5 (unknown origin) at 200 uM preincubated for 2 hrs followed by pronase addition and measured after 30 mins by coomassie blue staining based SDS-PAGE gel analysis
[4] = tested on: NRK-52E; test: Anti-renal-fibrosis activity in TGF-beta1 induced rat NRK-52E cells assessed as downregulation of fibronectin protein level by Western blot analysis; assay type: functional, cell-based; conditions: dose 5-40 µM
[5] = tested on: RAW264.7; test: Antiinflammatory activity against LPS-induced mouse RAW264.7 cells assessed as reduction in COX-2 protein level at 20 uM; assay type: functional, cell-based
[6] = molecular target: Armadillo repeat-containing protein 10 (Homo sapiens) (UniProt Q8N2F6); test: Binding affinity to Armc10 (unknown origin) at 200 uM preincubated for 2 hrs followed by pronase addition and measured after 30 mins by coomassie blue staining based SDS-PAGE gel analysis
Chain of Armadillo repeat-containing protein 10 (Homo sapiens) (Q8N2F6 whole entry): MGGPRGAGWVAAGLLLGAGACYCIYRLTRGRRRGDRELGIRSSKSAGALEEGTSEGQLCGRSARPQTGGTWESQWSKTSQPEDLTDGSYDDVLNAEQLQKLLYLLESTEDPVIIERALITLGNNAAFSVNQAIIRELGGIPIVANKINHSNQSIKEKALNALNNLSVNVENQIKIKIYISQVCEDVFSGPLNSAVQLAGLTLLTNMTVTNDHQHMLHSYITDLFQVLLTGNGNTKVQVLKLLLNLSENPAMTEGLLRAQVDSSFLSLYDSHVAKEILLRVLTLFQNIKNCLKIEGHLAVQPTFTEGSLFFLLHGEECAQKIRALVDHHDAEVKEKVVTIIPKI

[7] = molecular target: Protein farnesyltransferase/geranylgeranyltransferase type-1 subunit alpha (Homo sapiens) (UniProt P49354); test: Binding affinity to FNTA (unknown origin) assessed as fold change in protein upregulation at 200 uM preincubated for 2 hrs followed by pronase addition and measured after 30 mins by coomassie blue staining based SDS-PAGE gel analysis
[8] = molecular target: Rho-related GTP-binding protein RhoB (Homo sapiens) (UniProt P62745); test: Binding affinity to RHOB (unknown origin) at 200 uM preincubated for 2 hrs followed by pronase addition and measured after 30 mins by coomassie blue staining based SDS-PAGE gel analysis
Chain of Rho-related GTP-binding protein RhoB (Homo sapiens) (P62745 whole entry): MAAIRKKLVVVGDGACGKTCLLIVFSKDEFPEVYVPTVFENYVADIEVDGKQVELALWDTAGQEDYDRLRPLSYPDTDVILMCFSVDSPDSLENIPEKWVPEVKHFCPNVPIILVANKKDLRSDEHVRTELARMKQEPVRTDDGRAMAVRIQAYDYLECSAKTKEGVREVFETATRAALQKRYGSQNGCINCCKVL

[9] = tested on: NRK-52E; test: Anti-renal-fibrosis activity in TGF-beta1 induced rat NRK-52E cells assessed as downregulation of collagen I protein level at 20 uM by Western blot analysis; assay type: functional, cell-based
[10] = molecular target: Septin-5 (Homo sapiens) (UniProt Q99719); test: Binding affinity to Septin5 (unknown origin) assessed as fold change in protein upregulation at 200 uM preincubated for 2 hrs followed by pronase addition and measured after 30 mins by coomassie blue staining based SDS-PAGE gel analysis
[11] = molecular target: Chromosome transmission fidelity protein 18 homolog (Homo sapiens) (UniProt Q8WVB6); test: Binding affinity to Chtf18 (unknown origin) assessed as fold change in protein upregulation at 200 uM preincubated for 2 hrs followed by pronase addition and measured after 30 mins by coomassie blue staining based SDS-PAGE gel analysis
[12] = molecular target: Nonsense-mediated mRNA decay factor SMG7 (Homo sapiens) (UniProt Q92540); test: Binding affinity to Smg7 (unknown origin) at 200 uM preincubated for 2 hrs followed by pronase addition and measured after 30 mins by coomassie blue staining based SDS-PAGE gel analysis
Chain of Nonsense-mediated mRNA decay factor SMG7 (Homo sapiens) (Q92540 whole entry): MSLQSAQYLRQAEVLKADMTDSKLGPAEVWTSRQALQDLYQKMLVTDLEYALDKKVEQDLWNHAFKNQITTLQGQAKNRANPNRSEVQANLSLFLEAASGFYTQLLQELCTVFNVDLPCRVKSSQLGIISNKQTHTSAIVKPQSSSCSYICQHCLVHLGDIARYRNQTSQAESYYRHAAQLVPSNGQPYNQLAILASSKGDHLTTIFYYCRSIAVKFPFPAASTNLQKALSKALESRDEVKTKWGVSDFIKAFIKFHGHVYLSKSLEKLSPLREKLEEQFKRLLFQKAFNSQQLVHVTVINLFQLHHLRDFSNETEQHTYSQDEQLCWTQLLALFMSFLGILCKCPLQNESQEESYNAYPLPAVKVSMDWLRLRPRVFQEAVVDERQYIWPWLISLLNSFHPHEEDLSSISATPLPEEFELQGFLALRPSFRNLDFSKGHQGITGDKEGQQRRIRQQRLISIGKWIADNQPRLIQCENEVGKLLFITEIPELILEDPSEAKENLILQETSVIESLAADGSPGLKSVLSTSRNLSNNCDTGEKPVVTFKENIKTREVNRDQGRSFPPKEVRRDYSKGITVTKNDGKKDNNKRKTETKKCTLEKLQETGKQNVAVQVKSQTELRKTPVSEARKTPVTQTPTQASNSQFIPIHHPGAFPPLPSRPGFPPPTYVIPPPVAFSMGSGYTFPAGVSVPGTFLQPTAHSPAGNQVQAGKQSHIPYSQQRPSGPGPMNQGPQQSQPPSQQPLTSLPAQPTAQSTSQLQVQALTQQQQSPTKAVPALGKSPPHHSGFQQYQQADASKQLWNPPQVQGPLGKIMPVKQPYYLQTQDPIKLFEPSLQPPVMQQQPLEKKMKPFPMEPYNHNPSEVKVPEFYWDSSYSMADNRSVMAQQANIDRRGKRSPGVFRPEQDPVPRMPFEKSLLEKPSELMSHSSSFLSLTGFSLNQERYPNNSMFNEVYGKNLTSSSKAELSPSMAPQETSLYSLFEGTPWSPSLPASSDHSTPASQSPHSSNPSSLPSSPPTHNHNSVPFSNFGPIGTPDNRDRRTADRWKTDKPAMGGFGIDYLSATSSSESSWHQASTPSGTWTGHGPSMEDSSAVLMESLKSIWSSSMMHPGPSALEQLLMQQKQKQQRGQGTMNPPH

[13] = tested on: NRK-52E; test: Anti-renal-fibrosis activity in TGF-beta1 induced rat NRK-52E cells assessed as downregulation of alpha-SMA expression at 40 uM; assay type: functional, cell-based
[14] = tested on: NRK-52E; test: Anti-renal-fibrosis activity in TGF-beta1 induced Lamp2 knocked down rat NRK-52E cells assessed as downregulation of fibronectin expression at 40 uM; assay type: functional, cell-based
[15] = tested on: NRK-52E; test: Anti-renal-fibrosis activity in TGF-beta1 induced rat NRK-52E cells assessed as downregulation of fibronectin expression at 40 uM; assay type: functional, cell-based
[16] = tested on: NRK-52E; test: Cytotoxicity against rat NRK-52E cells at 10 to 80 uM incubated for 48 hrs by CCK-8 assay; assay type: toxicity, cell-based; conditions: dose 10-80 µM
[17] = molecular target: Heat shock 70 kDa protein 4L (Homo sapiens) (UniProt O95757); test: Binding affinity to Hspa4l (unknown origin) assessed as fold change in protein upregulation at 200 uM preincubated for 2 hrs followed by pronase addition and measured after 30 mins by coomassie blue staining based SDS-PAGE gel analysis
Chain of Heat shock 70 kDa protein 4L (Homo sapiens) (O95757 whole entry): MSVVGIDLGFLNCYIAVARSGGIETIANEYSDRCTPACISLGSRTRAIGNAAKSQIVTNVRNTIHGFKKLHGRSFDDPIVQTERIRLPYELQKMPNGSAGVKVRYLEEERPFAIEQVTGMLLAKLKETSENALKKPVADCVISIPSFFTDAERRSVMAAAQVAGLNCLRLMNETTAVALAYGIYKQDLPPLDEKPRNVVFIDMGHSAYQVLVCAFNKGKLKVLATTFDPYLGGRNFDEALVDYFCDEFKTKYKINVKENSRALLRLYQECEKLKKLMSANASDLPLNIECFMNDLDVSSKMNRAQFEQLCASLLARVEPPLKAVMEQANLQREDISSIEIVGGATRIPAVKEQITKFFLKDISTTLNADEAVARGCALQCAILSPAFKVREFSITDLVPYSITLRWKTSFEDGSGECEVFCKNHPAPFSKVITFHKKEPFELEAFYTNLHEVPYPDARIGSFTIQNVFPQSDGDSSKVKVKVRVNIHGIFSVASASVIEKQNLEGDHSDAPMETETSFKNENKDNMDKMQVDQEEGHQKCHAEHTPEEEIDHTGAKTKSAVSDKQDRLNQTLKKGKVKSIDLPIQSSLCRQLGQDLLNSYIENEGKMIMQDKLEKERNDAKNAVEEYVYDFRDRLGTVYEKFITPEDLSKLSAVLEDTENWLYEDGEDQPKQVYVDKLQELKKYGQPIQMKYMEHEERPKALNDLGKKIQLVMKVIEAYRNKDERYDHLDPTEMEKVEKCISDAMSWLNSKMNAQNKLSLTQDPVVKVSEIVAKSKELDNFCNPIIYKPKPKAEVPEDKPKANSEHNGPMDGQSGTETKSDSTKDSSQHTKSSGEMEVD

[18] = molecular target: SWI/SNF-related matrix-associated actin-dependent regulator of chromatin subfamily D member 2 (Homo sapiens) (UniProt Q92925); test: Binding affinity to Smarcd2 (unknown origin) at 200 uM preincubated for 2 hrs followed by pronase addition and measured after 30 mins by coomassie blue staining based SDS-PAGE gel analysis
[19] = molecular target: Far upstream element-binding protein 1 (Homo sapiens) (UniProt Q96AE4); test: Binding affinity to Fubp1 (unknown origin) assessed as fold change in protein upregulation at 200 uM preincubated for 2 hrs followed by pronase addition and measured after 30 mins by coomassie blue staining based SDS-PAGE gel analysis
[20] = tested on: NRK-52E; test: Anti-renal-fibrosis activity in TGF-beta1 induced rat NRK-52E cells assessed as downregulation of alpha-SMA protein level by Western blot analysis; assay type: functional, cell-based; conditions: dose 5-40 µM
[21] = molecular target: U6 snRNA-associated Sm-like protein LSm8 (Homo sapiens) (UniProt O95777); test: Binding affinity to Lsm8 (unknown origin) at 200 uM preincubated for 2 hrs followed by pronase addition and measured after 30 mins by coomassie blue staining based SDS-PAGE gel analysis
Chain of U6 snRNA-associated Sm-like protein LSm8 (Homo sapiens) (O95777 whole entry): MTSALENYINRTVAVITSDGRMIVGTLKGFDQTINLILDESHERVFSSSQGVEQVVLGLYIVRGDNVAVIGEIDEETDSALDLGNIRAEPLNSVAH

[22] = tested on: RNA polymerase II-associated factor 1 homolog; test: Binding affinity to Paf1 (unknown origin) at 200 uM preincubated for 2 hrs followed by pronase addition and measured after 30 mins by coomassie blue staining based SDS-PAGE gel analysis; conditions: Homo sapiens
[23] = molecular target: Protein YIF1A (Homo sapiens) (UniProt O95070); test: Binding affinity to Yif1a (unknown origin) at 200 uM preincubated for 2 hrs followed by pronase addition and measured after 30 mins by coomassie blue staining based SDS-PAGE gel analysis
Chain of Protein YIF1A (Homo sapiens) (O95070 whole entry): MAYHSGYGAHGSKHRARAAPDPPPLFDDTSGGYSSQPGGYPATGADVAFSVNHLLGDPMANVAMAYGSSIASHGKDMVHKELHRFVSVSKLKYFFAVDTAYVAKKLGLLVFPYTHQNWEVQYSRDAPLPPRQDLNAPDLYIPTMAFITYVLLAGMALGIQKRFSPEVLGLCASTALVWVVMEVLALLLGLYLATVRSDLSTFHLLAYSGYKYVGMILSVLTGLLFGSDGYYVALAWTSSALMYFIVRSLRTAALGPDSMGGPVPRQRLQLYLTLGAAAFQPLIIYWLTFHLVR

[24] = molecular target: Testin (Homo sapiens) (UniProt Q9UGI8); test: Binding affinity to Tes (unknown origin) assessed as fold change in protein upregulation at 200 uM preincubated for 2 hrs followed by pronase addition and measured after 30 mins by coomassie blue staining based SDS-PAGE gel analysis
[25] = molecular target: ATP-dependent RNA helicase DHX8 (Homo sapiens) (UniProt Q14562); test: Binding affinity to Dhx8 (unknown origin) at 200 uM preincubated for 2 hrs followed by pronase addition and measured after 30 mins by coomassie blue staining based SDS-PAGE gel analysis
[26] = molecular target: V-type proton ATPase subunit C 1 (Homo sapiens) (UniProt P21283); test: Binding affinity to Atp6v1c1 (unknown origin) assessed as fold change in protein upregulation at 200 uM preincubated for 2 hrs followed by pronase addition and measured after 30 mins by coomassie blue staining based SDS-PAGE gel analysis
Chain of V-type proton ATPase subunit C 1 (Homo sapiens) (P21283 whole entry): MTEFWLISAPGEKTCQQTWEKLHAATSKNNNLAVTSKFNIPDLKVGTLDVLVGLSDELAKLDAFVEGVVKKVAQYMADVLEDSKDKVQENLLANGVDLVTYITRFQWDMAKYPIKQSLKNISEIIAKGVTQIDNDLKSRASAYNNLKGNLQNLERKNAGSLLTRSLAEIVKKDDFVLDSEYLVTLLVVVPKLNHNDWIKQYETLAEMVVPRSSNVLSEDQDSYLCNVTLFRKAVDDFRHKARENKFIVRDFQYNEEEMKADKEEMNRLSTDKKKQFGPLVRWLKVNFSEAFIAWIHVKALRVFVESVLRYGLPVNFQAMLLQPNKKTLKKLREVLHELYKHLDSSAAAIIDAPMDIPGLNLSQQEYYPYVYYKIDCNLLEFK

[27] = molecular target: Far upstream element-binding protein 2 (Homo sapiens) (UniProt Q92945); test: Binding affinity to KHSRP (unknown origin) assessed as fold change in protein upregulation at 200 uM preincubated for 2 hrs followed by pronase addition and measured after 30 mins by coomassie blue staining based SDS-PAGE gel analysis
Chain of Far upstream element-binding protein 2 (Homo sapiens) (Q92945 whole entry): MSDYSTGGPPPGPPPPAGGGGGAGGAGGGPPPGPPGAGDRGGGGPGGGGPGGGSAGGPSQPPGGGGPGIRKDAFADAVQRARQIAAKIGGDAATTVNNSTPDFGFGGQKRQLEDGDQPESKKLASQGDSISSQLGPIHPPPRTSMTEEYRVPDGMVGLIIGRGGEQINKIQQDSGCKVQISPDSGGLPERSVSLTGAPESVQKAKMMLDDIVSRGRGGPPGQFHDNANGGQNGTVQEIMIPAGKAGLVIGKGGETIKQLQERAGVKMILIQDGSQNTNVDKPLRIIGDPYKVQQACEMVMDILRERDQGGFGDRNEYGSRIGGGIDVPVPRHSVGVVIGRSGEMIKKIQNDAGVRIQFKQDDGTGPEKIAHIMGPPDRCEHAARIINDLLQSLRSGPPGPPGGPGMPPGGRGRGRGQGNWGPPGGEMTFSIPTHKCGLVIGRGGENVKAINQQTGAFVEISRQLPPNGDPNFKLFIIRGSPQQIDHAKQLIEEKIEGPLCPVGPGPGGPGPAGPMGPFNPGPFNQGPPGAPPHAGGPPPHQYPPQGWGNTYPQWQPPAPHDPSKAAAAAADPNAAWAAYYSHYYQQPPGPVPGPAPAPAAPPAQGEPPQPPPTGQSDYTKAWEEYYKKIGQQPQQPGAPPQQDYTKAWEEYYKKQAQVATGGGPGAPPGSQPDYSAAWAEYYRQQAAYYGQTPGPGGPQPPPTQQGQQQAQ

[28] = tested on: NRK-52E; test: Anti-renal-fibrosis activity in TGF-beta1 induced rat NRK-52E cells assessed as downregulation of fibronectin protein level at 20 uM by Western blot analysis; assay type: functional, cell-based

For `COc1c(O)nc2c(O)cccc2c1OC`, the fold change (FC) [1] was 1.33, the Activity [2] was “Active” and the Activity [3] was “Active”. For the same compound, the Activity [4] was “Dose-Dependent Effect”, the Activity [5] was “Active” and the Activity [6] was “Active”. The fold change (FC) [7] was 1.26, the Activity [8] was “Active” and the Activity [9] was “Active”. The fold change (FC) [10] was 1.48, the fold change (FC) [11] was 2.05 and the Activity [12] was “Active”. For the same compound, the Activity [13] was “Active”, the Activity [14] was “inactive” and the Activity [15] was “Active”. The Activity [16] was “Non-Toxic”, the fold change (FC) [17] was 1.28 and the Activity [18] was “Active”. For the same compound, the fold change (FC) [19] was 1.29, the Activity [20] was “Dose-Dependent Effect” and the Activity [21] was “Active”. The Activity [22] was “Active”, the Activity [23] was “Active” and the fold change (FC) [24] was 1.32. The Activity [25] was “Active”, the fold change (FC) [26] was 1.21 and the fold change (FC) [27] was 2.19. The Activity [28] was “Active”.
